Data on 25 compounds can be found in patent US12209086B2, “FGFR3 inhibitor compounds” (ELI LILLY AND COMPANY, priority 2021, dated 2025).

The assay addresses T1, FGFR3 protein (Homo sapiens, UniProt P22607).
T1 construct: purchased Reaction Biology 1068
In words: FGFR3 enzyme assay (KinEASE-TK HTRF kinase assay). As to conditions: 0.25 nM enzyme, ATP at Km, 15 min pre-incubation on ice, 30 min at 30° C. Format: biochemical. How it is done: FGFR3 and FGFR1 Enzyme Assay
Enzyme activity was monitored using the KinEASE™-TK Assay Kit (Cisflio, Cat. No. 62TK0PEC) according to the manufacturer's instructions. All assays were performed at the respective KmATP for each kinase in KinEASE™ Kinase Buffer.
Titration of compounds were performed in a half-log manner in 100% dimethyl sulfoxide (DMSO) starting at 1 uM. Prior to the initiation of the reaction by adenosine triphosphate (ATP), FGFR1 protein and compounds were pre-incubated for 15 minutes at room temperature, and FGFR3 protein and compounds were pre-incubated on ice for 15 minutes. Reactions proceeded for 30 min at 30° C. Plates were quenched by the addition of the Anti-TK cryptate antibody/Streptavidin-XL665 mixture.
Ratios were converted to a percent of control (POC) using a ratiometric emission factor. One hundred POC was determined using no test compound, and 0 POC was determined in the presence of 1 uM of an appropriate control inhibitor.
For orientation: Time-resolved FRET reads energy transfer from a long-lived donor to a nearby acceptor.

T1 sequence (P22607 23-806): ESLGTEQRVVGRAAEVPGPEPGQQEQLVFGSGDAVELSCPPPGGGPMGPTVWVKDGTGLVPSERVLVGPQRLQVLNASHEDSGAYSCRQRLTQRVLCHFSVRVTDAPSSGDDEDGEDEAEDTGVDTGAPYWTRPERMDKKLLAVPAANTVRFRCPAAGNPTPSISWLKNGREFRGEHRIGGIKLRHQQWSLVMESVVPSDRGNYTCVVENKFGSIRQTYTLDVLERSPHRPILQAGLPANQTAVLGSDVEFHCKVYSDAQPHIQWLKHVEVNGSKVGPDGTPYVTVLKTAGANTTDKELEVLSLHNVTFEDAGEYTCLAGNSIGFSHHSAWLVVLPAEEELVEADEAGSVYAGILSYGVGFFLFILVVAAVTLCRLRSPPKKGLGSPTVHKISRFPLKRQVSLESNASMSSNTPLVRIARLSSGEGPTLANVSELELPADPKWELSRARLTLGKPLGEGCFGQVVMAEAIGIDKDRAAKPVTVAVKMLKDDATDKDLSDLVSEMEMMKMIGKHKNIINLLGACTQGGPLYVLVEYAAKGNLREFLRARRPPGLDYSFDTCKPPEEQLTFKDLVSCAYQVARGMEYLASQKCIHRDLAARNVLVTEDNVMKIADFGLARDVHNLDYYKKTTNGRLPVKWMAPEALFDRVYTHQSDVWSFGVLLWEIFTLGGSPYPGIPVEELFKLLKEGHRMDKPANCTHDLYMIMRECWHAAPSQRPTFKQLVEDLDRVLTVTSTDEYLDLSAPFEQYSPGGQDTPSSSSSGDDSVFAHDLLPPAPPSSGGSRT

The term IC50 denotes the concentration that gives 50% inhibition. Consider `Cc1c(-c2cc(O[C@H](C)c3ccccn3)n3c(C#N)cnc3c2)nnn1C1CC2(CCN(C#N)CC2)C1` [Example 212, 7-[1-(7-Cyano-7-azaspiro[3.5]nonan-2-yl)-5-methyl-triazol-4-yl]-5-[(1R)-1-(2-pyridyl)ethoxy]imidazo [1,2-a]pyridine-3-carbonitrile], for which the IC50 is less than 0.05 µM.
As for `Cc1c(-c2cc(OC(c3ccc(F)cn3)C3(F)CC3)c3c(C#N)cnn3c2)nnn1C1CCN(C#N)CC1` (stereo not shown) [Example 26, 6-[1-(1-Cyano-4-piperidyl)-5-methyl-triazol-4-yl]-4-[(1-fluorocyclopropyl)-(5-fluoro-2-pyridyl)methoxy]pyrazolo [1,5-a]pyridine-3-carbonitrile], the IC50 is less than 0.05 µM.
The same measure for `Cc1c(-c2cc(OC(C)c3cncc(C(F)(F)F)n3)n3c(C#N)cnc3c2)nnn1C1CCN(C#N)CC1` (single isomer, unassigned) [Example 99, 7-[1-(1-Cyano-4-piperidyl)-5-methyl-triazol-4-yl]-5-[1-[6-(trifluoromethyl)pyrazin-2-yl]ethoxy]imidazo [1,2-a]pyridine-3-carbonitrile]: less than 0.05 µM; for `COc1cc(-c2cnn(C3CN([C@H]4CCCN(C#N)C4)C3)c2C)cn2ncc(C#N)c12` [Example 215, (3S)-3-[3-(4-[3-Cyano-4-methoxypyrazolo[1,5-a]pyridin-6-yl]-5-methylpyrazol-1-yl)azetidin-1-yl]piperidine-1-carbonitrile]: less than 0.05 µM; for `Cc1c(-c2cc(OC(C)c3ccccc3S(C)(=O)=O)c3c(C#N)cnn3c2)cnn1C1CCN(C#N)CC1` (single isomer, unassigned; isomer 2) [Example 77, 6-[1-(1-Cyano-4-piperidyl)-5-methyl-pyrazol-4-yl]-4-[1-(2-methylsulfonylphenyl)ethoxy]pyrazolo[1,5-a]pyridine-3-carbonitrile, Isomer 2]: less than 0.1 µM.
Then `Cc1c(-c2cc(O[C@H](C)c3ccnn3C)c3c(C#N)cnn3c2)cnn1C1CCN(C#N)CC1` [Example 189, 4-(4-[3-Cyano-4-[(1R)-1-(2-methylpyrazol-3-yl)ethoxy]pyrazolo [1,5-a]pyridin-6-yl]-5-methylpyrazol-1-yl)piperidine-1-carbonitrile], with less than 0.05 µM; and `Cc1c(-c2cc(OC(C)c3ccccc3C(=O)N(C)C)c3c(C#N)cnn3c2)nnn1C1CCN(C#N)CC1` (single isomer, unassigned; isomer 2) [Example 75, 2-[1-[3-cyano-6-[1-(1-cyano-4-piperidyl)-5-methyl-triazol-4-yl]pyrazolo[1,5-a]pyridin-4-yl]oxyethyl]-N,N-dimethyl-benzamide, Isomer 2], with less than 0.1 µM; and `Cc1c(-c2cc(O[C@H](C)c3ccc(F)cn3)n3c(C#N)cnc3c2)nnn1C1CCN(C#N)CC1` [Example 170, 4-(4-[3-Cyano-5-[(1R)-1-(5-fluoropyridin-2-yl)ethoxy]imidazo[1,2-a]pyridin-7-yl]-5-methyl-1,2,3-triazol-1-yl)piperidine-1-carbonitrile], with less than 0.05 µM.
`Cc1c(-c2cc(OC(c3ccc(F)cn3)C(F)(F)F)n3c(C#N)cnc3c2)nnn1C1CCN(C#N)CC1` (single isomer, unassigned; isomer 1) [Example 48, 7-[1-(1-Cyano-4-piperidyl)-5-methyl-triazol-4-yl]-5-[2,2,2-trifluoro-1-(5-fluoro-2-pyridyl)ethoxy]imidazo[1,2-a]pyridine-3-carbonitrile, Isomer 1] returned an IC50 of less than 0.05 µM.
Then `Cc1c(-c2cc(O[C@H](C)c3nncn3CC(F)(F)F)n3c(C#N)cnc3c2)nnn1C1CCN(C#N)CC1` [Example 274, 7-[1-(1-Cyano-4-piperidyl)-5-methyl-triazol-4-yl]-5-[(1R)-1-[4-(2,2,2-trifluoroethyl)-1,2,4-triazol-3-yl]ethoxy]imidazo [1,2-a]pyridine-3-carbonitrile], with less than 0.1 µM; and `COCC(Oc1cc(-c2nnn(C3CCN(C#N)CC3)c2C)cc2ncc(C#N)n12)c1ccc(F)cn1` (single isomer, unassigned; isomer 1) [Example 49, 7-[1-(1-Cyano-4-piperidyl)-5-methyl-triazol-4-yl]-5-[1-(5-fluoro-2-pyridyl)-2-methoxy-ethoxy]imidazo[1,2-a]pyridine-3-carbonitrile, Isomer 1], with less than 0.05 µM; and `COc1cc(-c2cnn(C3CCN(C4CN(C#N)C4(C)C)CC3)c2C)cn2ncc(C#N)c12` (single isomer, unassigned) [Example 173, 3-[4-(4-[3-Cyano-4-methoxypyrazolo[1,5-a]pyridin-6-yl]-5-methylpyrazol-1-yl)piperidin-1-yl]-2,2-dimethylazetidine-1-carbonitrile], with less than 0.05 µM.
On to `Cc1c(-c2cc(OC(C)c3cc(C(F)(F)F)cnc3N3CCOCC3)c3c(C#N)cnn3c2)nnn1C1CCN(C#N)CC1` (stereo not shown) [Example 13, 6-[1-(1-Cyano-4-piperidyl)-5-methyl-triazol-4-yl]-4-[1-[2-morpholino-5-(trifluoromethyl)-3-pyridyl]ethoxy]pyrazolo [1,5-a]pyridine-3-carbonitrile], for which the IC50 is less than 0.1 µM.
Then `Cc1c(-c2cc(OC(CF)c3ccc(F)cn3)c3c(C#N)cnn3c2)nnn1C1CCN(C#N)CC1` (stereo not shown) [Example 22, 6-[1-(1-Cyano-4-piperidyl)-5-methyl-triazol-4-yl]-4-[2-fluoro-1-(5-fluoro-2-pyridyl)ethoxy]pyrazolo [1,5-a]pyridine-3-carbonitrile], with less than 0.05 µM; and `Cc1c(-c2cc(O[C@H](C)c3ccccn3)c3c(C#N)cnn3c2)nnn1C1CCN(C#N)CC1` [Example 169, 4-(4-[3-Cyano-4-[(1R)-1-(pyridin-2-yl)ethoxy]pyrazolo[1,5-a]pyridin-6-yl]-5-methyl-1,2,3-triazol-1-yl)piperidine-1-carbonitrile], with less than 0.05 µM.
Then `Cc1c(-c2cc(OC(C)c3cncc4ccccc34)c3c(C#N)cnn3c2)nnn1C1CCN(C#N)CC1` (stereo not shown) [Example 24, 6-[1-(1-Cyano-4-piperidyl)-5-methyl-triazol-4-yl]-4-[1-(4-isoquinolyl)ethoxy] pyrazolo[1,5-a] pyridine-3-carbonitrile], with less than 0.05 µM; and `Cc1c(-c2cc(O[C@H](C)c3ccccn3)n3c(C#N)cnc3c2)nnn1C1CCCN(C#N)CC1` (stereo partly drawn) [Example 257, 7-[1-(1-Cyanoazepan-4-yl)-5-methyl-triazol-4-yl]-5-[(1R)-1-(2-pyridyl)ethoxy] imidazo[1,2-a]pyridine-3-carbonitrile], with less than 0.05 µM; and `Cc1c(-c2cc(O[C@H](C)c3ccccc3C#N)c3c(Cl)cnn3c2)cnn1C1CCN(C#N)CC1` [Example 297, 4-[4-[3-Chloro-4-[(1R)-1-(2-cyanophenyl)ethoxy]pyrazolo[1,5-a]pyridin-6-yl]-5-methyl-pyrazol-1-yl]piperidine-1-carbonitrile], with less than 0.05 µM.
Consider `Cc1c(-c2cc(OC(C)c3ccccc3-c3ccon3)n3c(C#N)cnc3c2)nnn1C1CCN(C#N)CC1` (single isomer, unassigned) [Example 142, 7-[1-(1-Cyano-4-piperidyl)-5-methyl-triazol-4-yl]-5-[1-(2-isoxazol-3-ylphenyl)ethoxy] imidazo [1,2-a]pyridine-3-carbonitrile], for which the IC50 is less than 0.1 µM.
Then `Cc1c(-c2cc(OCC(O)c3ccc(F)cn3)c3c(Cl)cnn3c2)nnn1C1CCN(C#N)CC1` (single isomer, unassigned) [Example 155, 4-[4-[3-Chloro-4-[2-(5-fluoro-2-pyridyl)-2-hydroxy-ethoxy]pyrazolo[1,5-a]pyridin-6-yl]-5-methyl-triazol-1-yl]piperidine-1-carbonitrile], with less than 0.05 µM; and `Cc1c(-c2cc(OC(CO)c3ccc(F)cn3)c3c(Cl)cnn3c2)nnn1C1CC(N2CCN(C#N)CC2)C1` (single isomer, unassigned) [Example 152, Cis-4-[3-[4-[3-Chloro-4-[1-(5-fluoro-2-pyridyl)-2-hydroxy-ethoxy]pyrazolo[1,5-a]pyridin-6-yl]-5-methyl-triazol-1-yl]cyclobutyl] piperazine-1-carbonitrile], with less than 0.05 µM.
`Cc1c(-c2cc(OC(C)c3cncc(C(F)(F)F)c3)n3c(C#N)cnc3c2)nnn1C1CCN(C#N)CC1` (single isomer, unassigned; isomer 1) [Example 41, 7-[1-(1-Cyano-4-piperidyl)-5-methyl-triazol-4-yl]-5-[1-[5-(trifluoromethyl)-3-pyridyl]ethoxy]imidazo[1,2-a]pyridine-3-carbonitrile, Isomer 1]: the IC50 is less than 0.05 µM.
The same measure for `COc1cc(-c2cnn(C3CC4(CCN(C#N)CC4)C3)c2C)cn2ncc(C#N)c12` [Example 171, 2-(4-[3-Cyano-4-methoxypyrazolo[1,5-a]pyridin-6-yl]-5-methylpyrazol-1-yl)-7-azaspiro[3.5]nonane-7-carbonitrile]: less than 0.05 µM; for `Cc1c(-c2cc(OC(c3ccccn3)C(C)(C)C)n3c(C#N)cnc3c2)nnn1C1CCN(C#N)CC1` (single isomer, unassigned) [Example 264, 7-[1-(1-Cyano-4-piperidyl)-5-methyl-triazol-4-yl]-5-[2,2-dimethyl-1-(2-pyridyl)propoxy] imidazo[1,2-a]pyridine-3-carbonitrile]: less than 0.1 µM; for `Cc1c(-c2cc(OC(C)c3cncc4cc(F)ccc34)c3c(C#N)cnn3c2)nnn1C1CCN(C#N)CC1` (stereo not shown) [Example 21, 6-[1-(1-Cyano-4-piperidyl)-5-methyl-triazol-4-yl]-4-[1-(7-fluoro-4-isoquinolyl)ethoxy] pyrazolo[1,5-a] pyridine-3-carbonitrile]: less than 0.05 µM.
